Assays:
[1] = Inhibition of caspase-like activity of human 20S proteasome beta 1
[2] = Inhibition of trypsin-like activity of human 20S proteasome beta 2

Row | Structure (SMILES) | IC50 [1] [µM] | IC50 [2] [µM]
1 | CCCc1ccc(OCC(=O)N(Cc2nc(-c3cccnc3)no2)C(C)C)cc1 | > 50 | > 50
2 | CCCc1ccc(OCC(=O)N(Cc2nc(-c3ccco3)no2)C(C)C)cc1 | > 50 | > 50
3 | CCCc1ccc(OCC(=O)N(Cc2nc(-c3cccs3)no2)C(C)C)cc1 | > 50 | > 50
4 | CCCc1ccc(OCC(=O)N(Cc2cccc(-c3cccnc3)c2)C(C)C)cc1 | > 50 | > 50
